Reference: US7928098B2, “Therapeutic and/or preventive agents for a sleep disorder” (Kyowa Hakko Kirin Co., Ltd., priority 2005, dated 2011)

Row | Compound | melting point
1 | O=C(Nc1nc(-c2ccco2)c(C(=O)c2ccccn2)s1)c1ccoc1 [Compound 146, N-[4-(2-Furyl)-5-(pyridin-2-ylcarbonyl)thiazol-2-yl]furan-3-carboxamide] | 187 to 189 °C
2 | Cc1occc1C(=O)Nc1nc(-c2ccco2)c(C(=O)c2ccccn2)s1 [Compound 147, N-[4-(2-Furyl)-5-(pyridin-2-ylcarbonyl)thiazol-2-yl]-2-methylfuran-3-carboxamide] | 183 to 186 °C
3 | Cc1cc(C(=O)Nc2nc(-c3ccco3)c(C(=O)c3ccccn3)s2)c(C)o1 [Compound 148, N-[4-(2-Furyl)-5-(pyridin-2-ylcarbonyl)thiazol-2-yl]-2,5-dimethylfuran-3-carboxamide] | 195 to 198 °C
4 | O=C(Nc1nc(-c2ccco2)c(C(=O)c2ccccn2)s1)c1cccs1 [Compound 149, N-[4-(2-Furyl)-5-(pyridin-2-ylcarbonyl)thiazol-2-yl]-thiophene-2-carboxamide] | 197 to 199 °C
5 | O=C(Nc1nc(-c2ccco2)c(C(=O)c2ccccn2)s1)c1ccno1 [Compound 150, N-[4-(2-Furyl)-5-(pyridin-2-ylcarbonyl)thiazol-2-yl]isoxazole-5-carboxamide] | 223 to 230 °C
6 | Cc1cc(C(=O)Nc2nc(-c3ccco3)c(C(=O)c3ccccn3)s2)no1 [Compound 151, N-[4-(2-Furyl)-5-(pyridin-2-ylcarbonyl)thiazol-2-yl]-5-methylisoxazole-3-carboxamide] | 209 to 213 °C
7 | O=C(Nc1nc(-c2ccco2)c(C(=O)c2ccccn2)s1)c1ccc2snnc2c1 [Compound 152, N-[4-(2-Furyl)-5-(pyridin-2-ylcarbonyl)thiazol-2-yl]-1,2,3-benzothiadiazole-5-carboxamide] | 213 to 218 °C
8 | Cn1nnc2ccc(C(=O)Nc3nc(-c4ccco4)c(C(=O)c4ccccn4)s3)cc21 [Compound 153, N-[4-(2-Furyl)-5-(pyridin-2-ylcarbonyl)thiazol-2-yl]-1-methyl-1H-benzotriazole-6-carboxamide] | 230 to 231 °C
9 | CC(O)c1cc2cc(C(=O)Nc3nc(-c4ccco4)c(C(=O)c4ccccn4)s3)ccc2o1 (stereo not drawn) [Compound 154, N-[4-(2-Furyl)-5-(pyridin-2-ylcarbonyl)thiazol-2-yl]-2-(1-hydroxyethyl)-1-benzofuran-5-carboxamide] | 246 to 249 °C
10 | CC(C)(O)c1cc2cc(C(=O)Nc3nc(-c4ccco4)c(C(=O)c4ccccn4)s3)ccc2o1 [Compound 155, N-[4-(2-Furyl)-5-(pyridin-2-ylcarbonyl)thiazol-2-yl]-2-(1-hydroxy-1-methylethyl)-1-benzofuran-5-carboxamide] | 230 to 231 °C
11 | O=C(Nc1nc(-c2ccco2)c(C(=O)c2ccccn2)s1)c1cnc2occc2c1 [Compound 156, N-[4-(2-Furyl)-5-(pyridin-2-ylcarbonyl)thiazol-2-yl]-furo[2,3-b]pyridine-5-carboxamide] | 234 to 235 °C
12 | CCOC(=O)Nc1nc(-c2ccco2)c(C(=O)c2ccccn2)s1 [Compound 158, Ethyl N-[4-(2-furyl)-5-(pyridin-2-ylcarbonyl)thiazol-2-yl]carbamate] | 158 to 159 °C
13 | O=C(Nc1nc(-c2ccco2)c(C(=O)c2ccccn2)s1)OC1CCC1 [Compound 159, Cyclobutyl N-[4-(2-furyl)-5-(pyridin-2-ylcarbonyl)thiazol-2-yl]carbamate] | 152 to 153 °C
14 | O=C(Nc1nc(-c2ccco2)c(C(=O)c2ccccn2)s1)OC1CCCC1 [Compound 160, Cyclopentyl N-[4-(2-furyl)-5-(pyridin-2-ylcarbonyl)thiazol-2-yl]carbamate] | 162 to 163 °C
15 | O=C(Nc1nc(-c2ccco2)c(C(=O)c2ccccn2)s1)OC1CCOCC1 [Compound 161, 4-Tetrahydropyranyl N-[4-(2-furyl)-5-(pyridin-2-ylcarbonyl)thiazol-2-yl]carbamate] | 144 to 145 °C
16 | CN1CCC(OC(=O)Nc2nc(-c3ccco3)c(C(=O)c3ccccn3)s2)CC1 [Compound 162, 1-Methylpiperidine-4-yl N-[4-(2-furyl)-5-(pyridin-2-ylcarbonyl)thiazol-2-yl]carbamate] | 222 to 225 °C
17 | O=C(Nc1nc(-c2ccco2)c(C(=O)c2ccccn2)s1)OC(CF)CF [Compound 163, 2-Fluoro-1-(fluoromethyl)ethyl N-[4-(2-furyl)-5-(pyridin-2-ylcarbonyl)thiazol-2-yl]carbamate] | 158 to 159 °C
18 | O=C(c1ccccn1)c1sc(NC(=O)N2CCOCC2)nc1-c1ccco1 [Compound 164, N-[4-(2-Furyl)-5-(pyridin-2-ylcarbonyl)thiazol-2-yl]morpholine-4-carboxamide] | 144 to 145 °C
19 | O=C(c1ccccn1)c1sc(NC(=O)N2CCCCC2)nc1-c1ccco1 [Compound 165, N-[4-(2-Furyl)-5-(pyridin-2-ylcarbonyl)thiazol-2-yl]piperidine-1-carboxamide] | 182 to 185 °C
20 | CC(C)NC(=O)Nc1nc(-c2ccco2)c(C(=O)c2ccccn2)s1 [Compound 166, N-[4-(2-Furyl)-5-(pyridin-2-ylcarbonyl)thiazol-2-yl]-N′-isopropylurea] | 182 to 186 °C

Row | Compound | melting point
21 | CC(C)(C)NC(=O)Nc1nc(-c2ccco2)c(C(=O)c2ccccn2)s1 [Compound 167, N-tert-Butyl-N′-[4-(2-furyl)-5-(pyridin-2-ylcarbonyl)thiazol-2-yl]urea] | 123 to 124 °C
22 | COCCNC(=O)Nc1nc(-c2ccco2)c(C(=O)c2ccccn2)s1 [Compound 168, N-[4-(2-Furyl)-5-(pyridin-2-ylcarbonyl)thiazol-2-yl]-N′-(2-methoxyethyl)urea] | 150 to 151 °C
23 | COCCCNC(=O)Nc1nc(-c2ccco2)c(C(=O)c2ccccn2)s1 [Compound 169, N-[4-(2-Furyl)-5-(pyridin-2-ylcarbonyl)thiazol-2-yl]-N′-(3-methoxypropyl)urea] | 169 to 170 °C
24 | O=C(CCl)Nc1nc(-c2ccco2)c(C(=O)c2ccccn2)s1 [Compound 170, 2-Chloro-N-[4-(2-furyl)-5-(pyridin-2-ylcarbonyl)thiazol-2-yl]acetamide] | 184 to 185 °C
25 | O=C(CN1CCOCC1)Nc1nc(-c2ccco2)c(C(=O)c2ccccn2)s1 [Compound 172, N-[4-(2-Furyl)-5-(pyridin-2-ylcarbonyl)thiazol-2-yl]morpholinoacetamide] | 170 to 171 °C
26 | C[C@@H]1CN(CC(=O)Nc2nc(-c3ccco3)c(C(=O)c3ccccn3)s2)C[C@H](C)O1 [Compound 173, 2-(cis-2,6-Dimethylmorpholino)-N-[4-(2-furyl)-5-(pyridin-2-ylcarbonyl)thiazol-2-yl]acetamide] | 188 to 191 °C
27 | CC1CCN(CC(=O)Nc2nc(-c3ccco3)c(C(=O)c3ccccn3)s2)CC1 [Compound 174, N-[4-(2-Furyl)-5-(pyridin-2-ylcarbonyl)thiazol-2-yl]-2-(4-methylpiperidino)acetamide] | 104 to 106 °C
28 | O=C(CN1CCC2(CC1)OCCO2)Nc1nc(-c2ccco2)c(C(=O)c2ccccn2)s1 [Compound 177, 2-(1,4-Dioxa-8-azaspiro[4.5]decan-8-yl)-N-[4-(2-furyl)-5-(pyridin-2-ylcarbonyl)thiazol-2-yl]acetamide] | 188 to 204 °C
29 | O=C(CN1CCC(N2CCCCC2)CC1)Nc1nc(-c2ccco2)c(C(=O)c2ccccn2)s1 [Compound 178, N-[4-(2-Furyl)-5-(pyridin-2-ylcarbonyl)thiazol-2-yl]-2-(4-piperidinopiperidino)acetamide] | 214 to 220 °C (dec.)
30 | O=C(CN1CCC(N2CCOCC2)CC1)Nc1nc(-c2ccco2)c(C(=O)c2ccccn2)s1 [Compound 179, N-[4-(2-Furyl)-5-(pyridin-2-ylcarbonyl)thiazol-2-yl]-2-(4-morpholinopiperidino)acetamide] | 149 to 150 °C
31 | CCN1CCN(CC(=O)Nc2nc(-c3ccco3)c(C(=O)c3ccccn3)s2)CC1 [Compound 181, 2-(4-Ethylpiperazin-1-yl)-N-[4-(2-furyl)-5-(pyridin-2-ylcarbonyl)thiazol-2-yl]acetamide] | 142 to 144 °C
32 | CC(C)N1CCN(CC(=O)Nc2nc(-c3ccco3)c(C(=O)c3ccccn3)s2)CC1 [Compound 182, N-[4-(2-Furyl)-5-(pyridin-2-ylcarbonyl)thiazol-2-yl]-2-(4-isopropylpiperazine-1-yl)acetamide] | 154 to 155 °C
33 | CC(=O)N1CCN(CC(=O)Nc2nc(-c3ccco3)c(C(=O)c3ccccn3)s2)CC1 [Compound 183, 2-(4-Acetylpiperazin-1-yl)-N-[4-(2-furyl)-5-(pyridin-2-ylcarbonyl)thiazol-2-yl]acetamide] | 170 to 171 °C
34 | O=C(CN1CCN(c2ccccc2)CC1)Nc1nc(-c2ccco2)c(C(=O)c2ccccn2)s1 [Compound 184, N-[4-(2-Furyl)-5-(pyridin-2-ylcarbonyl)thiazol-2-yl]-2-(4-phenylpiperazin-1-yl)acetamide] | 203 to 204 °C
35 | O=C(CN1CCN(c2ccccn2)CC1)Nc1nc(-c2ccco2)c(C(=O)c2ccccn2)s1 [Compound 185, N-[4-(2-Furyl)-5-(pyridin-2-ylcarbonyl)thiazol-2-yl]-2-[4-(2-pyridyl)piperazin-1-yl]acetamide] | 215 to 218 °C
36 | O=C(CN1CCN(c2ncccn2)CC1)Nc1nc(-c2ccco2)c(C(=O)c2ccccn2)s1 [Compound 186, N-[4-(2-Furyl)-5-(pyridin-2-ylcarbonyl)thiazol-2-yl]-2-[4-(2-pyrimidinyl)piperazin-1-yl]acetamide] | 199 to 200 °C
37 | O=C(CN1CCN(C2CCOCC2)CC1)Nc1nc(-c2ccco2)c(C(=O)c2ccccn2)s1 [Compound 187, N-[4-(2-Furyl)-5-(pyridin-2-ylcarbonyl)thiazol-2-yl]-2-[4-(tetrahydropyran-4-yl)piperazin-1-yl]acetamide] | 172 to 188 °C
38 | O=C(CN1CCSC1)Nc1nc(-c2ccco2)c(C(=O)c2ccccn2)s1 [Compound 189, N-[4-(2-Furyl)-5-(pyridin-2-ylcarbonyl)thiazol-2-yl]-2-(1,3-thiazolidin-3-yl)acetamide] | 153 to 155 °C
39 | O=C(CN1CCSCC1)Nc1nc(-c2ccco2)c(C(=O)c2ccccn2)s1 [Compound 190, N-[4-(2-Furyl)-5-(pyridin-2-ylcarbonyl)thiazol-2-yl]-2-thiomorpholinoacetamide] | 148 to 149 °C
